Measured values taken from patent US9751886B2, “4-amino-6-phenyl-6,7-dihydro[1,2,3]triazolo[1,5-A]pyrazine derivatives as inhibitors of beta-secretase (BACE)” (Janssen Pharmaceutica NV, priority 2013, dated 2017).

How the values were obtained:
[1] = molecular target: recombinant BACE1 protein (Homo sapiens (Human), UniProt P56817); experiment: BACE1 Biochemical FRET based assay - Method 1; settings: 1 μg/ml BACE1, 10 μM substrate, 120 min, pH 5.0; read-out: BACE1 Biochemical FRET based assay - Method 1 pIC50 (converted)
Sequence of recombinant BACE1 protein (P56817 46-501): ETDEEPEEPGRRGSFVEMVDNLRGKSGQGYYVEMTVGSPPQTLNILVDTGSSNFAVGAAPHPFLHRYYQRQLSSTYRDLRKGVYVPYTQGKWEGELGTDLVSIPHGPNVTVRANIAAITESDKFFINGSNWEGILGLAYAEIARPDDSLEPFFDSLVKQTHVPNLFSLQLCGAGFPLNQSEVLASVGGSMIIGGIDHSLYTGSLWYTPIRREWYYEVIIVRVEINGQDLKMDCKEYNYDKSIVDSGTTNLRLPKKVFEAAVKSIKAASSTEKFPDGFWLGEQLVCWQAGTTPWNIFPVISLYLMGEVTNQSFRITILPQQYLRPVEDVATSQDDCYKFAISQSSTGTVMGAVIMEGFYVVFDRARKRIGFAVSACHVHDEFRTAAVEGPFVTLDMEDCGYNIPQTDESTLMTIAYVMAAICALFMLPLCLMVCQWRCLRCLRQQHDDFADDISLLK
Excerpt: This assay is a Fluorescence Resonance Energy Transfer Assay (FRET) based assay. The substrate for this assay is an APP derived 13 amino acids peptide that contains the ‘Swedish’ Lys-Met/Asn-Leu mutation of the amyloid precursor protein (APP) beta-secretase cleavage site. This substrate also contains two fluorophores: (7-methoxycoumarin-4-yl) acetic acid (Mca) is a fluorescent donor with excitation wavelength at 320 nm and emission at 405 nm and 2,4-Dinitrophenyl (Dnp) is a proprietary quencher acceptor. […] Upon cleavage by BACE1, the fluorophore Mca is separated from the quenching group Dnp, restoring the full fluorescence yield of the donor. The increase in fluorescence is linearly related to the rate of proteolysis.
Briefly in a 384-well format recombinant BACE1 protein in a final concentration of 1 μg/ml is incubated for 120 minutes at room temperature with […] substrate in incubation buffer (40 mM Citrate buffer pH 5.0, 0.04% PEG, 4% DMSO) in the absence or presence of compound. Next the amount of proteolysis is directly measured by fluorescence measurement at T=0 and T=120 (excitation at 320 nm and emission at 405 nm). Results are expressed in RFU (Relative Fluorescence Units), as difference between T120 and TO.

[2] = system: Abeta 1-42 secreted by human neuroblastoma SKNBE2 cells expressing wild type hAPP695; experiment: BACE1 cellular αLisa assay in SKNBE2 cells, Abeta 1-42; format: cell-based; settings: Homo sapiens, 18 hours incubation, read-out: Cellular αLisa assay in SKNBE2 cells Abeta 42 pIC50 (converted)
Procedure: (§1) In two αLisa assays the levels of Abeta total and Abeta 1-42 produced and secreted into the medium of human neuroblastoma SKNBE2 cells are quantified. The assay is based on the human neuroblastoma SKNBE2 expressing the wild type Amyloid Precursor Protein (hAPP695). The compounds are diluted and added to these cells, incubated for 18 hours and then measurements of Abeta 1-42 and Abeta total are taken. Abeta total and Abeta 1-42 are measured by sandwich αLisa. αLisa is a sandwich assay using biotinylated antibody AbN/25 attached to streptavidin coated beads and antibody Ab4G8 or cAb42/26 conjugated acceptor beads for the detection of Abeta total and Abeta 1-42 respectively. In the presence of Abeta total or Abeta 1-42, the beads come into close proximity. The excitation of the donor beads provokes the release of singlet oxygen molecules that trigger a cascade of energy transfer in the acceptor beads, resulting in light emission.

[3] = system: Abeta total secreted by human neuroblastoma SKNBE2 cells expressing wild type hAPP695; experiment: BACE1 cellular αLisa assay in SKNBE2 cells, Abeta total; format: cell-based; settings: Homo sapiens, 18 hours incubation, read-out: Cellular αLisa assay in SKNBE2 cells Abetatotal pIC50 (converted)
Procedure: as §1

[4] = system: brain levels of soluble Aβ42, Aβ40; experiment: In vivo Aβ lowering in non-transgenic rodents (MSD electrochemiluminescence); set-up: species or system mouse; settings: dose 10, s.c., untreated control = 100
Excerpt: To determine whether acute administration of an Aβ lowering agent would reduce Aβ levels in vivo, non-transgenic rodents, e.g. mice or rats were used. Animals treated with the Aβ lowering agent were examined and compared to those untreated or treated with vehicle and brain levels of soluble Aβ42, Aβ40, Aβ38, and Aβ37 were quantitated by Meso Scale Discovery's (MSD) electrochemiluminescence detection technology. Treatment periods varied from hours (h) to days and were adjusted based on the results of the Aβ lowering once a time course of onset of effect could be established.
A typical protocol for measuring Aβ lowering in vivo is shown but it is only one of many variations that could be used to optimize the levels of detectable A. For example, Aβ lowering compounds were formulated in 20% of Captisol® (a sulfo-butyl ether of β-cyclodextrin) in water or 20% hydroxypropyl β cyclodextrin. The Aβ lowering agents were administered as a single oral dose or by any acceptable route of administration to overnight fasted animals. […]
Blood was collected by decapitation and exsanguinations in EDTA-treated collection tubes. Blood was centrifuged at 1900 g for 10 minutes (min) at 4° C. and the plasma recovered and flash frozen for later analysis. The brain was removed from the cranium and hindbrain. The cerebellum was removed and the left and right hemisphere were separated. The left hemisphere was stored at −18° C. for quantitative analysis of test compound levels. The right hemisphere was rinsed with phosphate-buffered saline (PBS) buffer and immediately frozen on dry ice and stored at −80° C. until homogenization for biochemical assays.
Mouse brains from non-transgenic animals were resuspended in 8 volumes of 0.4% DEA (diethylamine)/50 mM NaCl containing protease inhibitors (Roche-11873580001 or 04693159001) per gram of tissue, e.g. for 0.158 g brain, add 1.264 ml of 0.4% DEA. All samples were homogenized in the FastPrep-24 system (MP Biomedicals) using lysing matrix D (MPBio #6913-100) at 6 m/s for 20 seconds. Homogenates were centrifuged at 20800×g for 5 min and supernatants collected. Supernatants were centrifuged at 221.300×g for 50 min. The resulting high speed supernatants were then transferred to fresh eppendorf tubes. Nine parts of supernatant were neutralized with 1 part 0.5 M Tris-HCl pH 6.8 and used to quantify Aβ.
To quantify the amount of Aβ42, Aβ40, Aβ38, and Aβ37 in the soluble fraction of the brain homogenates, simultaneous specific detection of Aβ42, Aβ40, Aβ38, and Aβ37 was performed using MSD's electro-chemiluminescence multiplex detection technology. In this assay purified monoclonal antibodies specific for Abeta37 (JRD/Aβ37/3), Abeta38 (J&JPRD/Aβ38/5), Abeta40 (JRF/cAβ40/28), and Abeta42 (JRF/cAβ(342/26) were coated on MSD 4-plex plates. Briefly, the standards (a dilution of synthetic Aβ42, Aβ40, Aβ38, and Aβ37) were prepared in 1.5 ml Eppendorf tube in Ultraculture, with final concentrations ranging from 10000 to 0.3 pg/m. The samples and standards were co-incubated with Sulfo-tag labelled JRF/rAβ/2 antibody to the N-terminus of Aβ as detector antibody. 50 μl of conjugate/sample or conjugate/standards mixtures were then added to the antibody-coated plate. The plate was allowed to incubate overnight at 4° C. in order to allow formation of the antibody-amyloid complex. Following this incubation and subsequent wash steps the assay was finished by adding read buffer according to the manufacturer's instructions (Meso Scale Discovery, Gaitherburg, Md.).
The SULFO-TAG emits light upon electrochemical stimulation initiated at the electrode. MSD Sector instrument SI6000 was used for signal read-out.
The results are shown in Table 8 (value for untreated animals as control (Ctrl) was set at 100): […]

Question: Which IC50 [1] does the source give for `C[C@@]1(c2cc(NC(=O)c3ccc(F)cn3)ccc2F)Cn2nncc2C(N)=N1` [Compound 1, N-{3-[(6R)-4-amino-6-methyl-6,7-dihydro[1,2,3]triazolo[1,5-a]pyrazin-6-yl]-4-fluorophenyl}-5-fluoropyridine-2-carboxamide] here?
Answer: 5.25 nM

Question: And the IC50 [2]?
Answer: 4.47 nM

Question: What about the IC50 [3] of the same molecule?
Answer: 3.24 nM

Question: What about the “Aβ40 (% vs Ctrl)_Mean” value ([4]; 2 h after administration) of the same molecule?
Answer: 47 % vs Ctrl

Question: And the “Aβ42 (% vs Ctrl)_Mean” value ([4]; 2 h after administration)?
Answer: 47 % vs Ctrl

Question: And the “Aβ40 (% vs Ctrl)_Mean” value ([4]; 4 h after administration)?
Answer: 73 % vs Ctrl

Question: What about the “Aβ42 (% vs Ctrl)_Mean” value ([4]; 4 h after administration) of the same molecule?
Answer: 55 % vs Ctrl
